Source: ChEMBL document CHEMBL1201862, “PubChem BioAssay data set” (2004)
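The compound was tested at five concentrations on cells cultured in 96-well plates, with a 48-hour exposure period. Here, GI50 denotes the concentration required for 50% inhibition of growth.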 Activity calls are given as the source filed them. Rule as the data show it: active = GI50 up to about 1.1 µM and inactive = higher.

Assays:
Assay in all cases: NCI tumour cell line growth inhibition, 48 h
DLD-1 = test system: DLD-1
KM-20L2 = test system: KM-20L2
LXFL 529 = test system: LXFL 529
HOP-18 = test system: HOP-18
XF498 = test system: XF498
DMS-273 = test system: DMS-273
DMS-114 = test system: DMS-114
M19-MEL = test system: M19-MEL
RXF 631 = test system: RXF 631

Compound | GI50 (DLD-1) | GI50 (KM-20L2) | GI50 (LXFL 529) | GI50 (HOP-18) | GI50 (XF498) | GI50 (DMS-273) | GI50 (DMS-114) | GI50 (M19-MEL) | GI50 (RXF 631)
CN(C)CCCn1c2c3ccccc3ccc2c2oc(=O)c3ccccc3c21 | 1.47 µM (inactive) | 1.39 µM (inactive) | 3.56 µM (inactive) | 16.6 µM (inactive) | 3.85 µM (inactive) | 1.49 µM (inactive) | 1.77 µM (inactive) | 3.13 µM (inactive) | –
O=C1NC(=S)NC(=O)C1=C(O)Nc1ccccc1 | 36.6 µM (inactive) | 44.9 µM (inactive) | – | 42.4 µM (inactive) | – | 28.7 µM (inactive) | 25.8 µM (inactive) | 37.2 µM (inactive) | –
O=C1/C(=C\c2ccccc2)CN(C(=O)CCN2CCCCC2)C/C1=C/c1ccccc1 | 1.19 µM (inactive) | 0.811 µM (active) | 1.32 µM (inactive) | 3.03 µM (inactive) | 1.73 µM (inactive) | 1.44 µM (inactive) | 1.23 µM (inactive) | 0.658 µM (active) | 1.47 µM (inactive)
O=C(c1ccccc1)c1ccc2c(c1)N=C(c1ccc(Cl)c(Cl)c1)CC(c1ccc3ccccc3c1)N2 (stereo not given) | > 100 µM (inactive) | > 100 µM (inactive) | > 100 µM (inactive) | – | > 100 µM (inactive) | > 100 µM (inactive) | > 100 µM (inactive) | > 100 µM (inactive) | > 100 µM (inactive)
O=C(c1ccco1)N(C(=S)N1CCN(c2ccccn2)CC1)c1ccccc1 | > 100 µM (inactive) | > 100 µM (inactive) | > 100 µM (inactive) | > 100 µM (inactive) | 60.7 µM (inactive) | > 100 µM (inactive) | 66.1 µM (inactive) | > 100 µM (inactive) | –
Cn1c(-c2ccccc2)cc(-c2cccs2)c1-c1cccs1 | > 100 µM (inactive) | 47.2 µM (inactive) | – | > 100 µM (inactive) | > 100 µM (inactive) | > 100 µM (inactive) | > 52 µM (inactive) | 83.2 µM (inactive) | –
CCN(C1=CC(=O)NC2CCCCN12)c1ccccc1 (stereo not given) | > 100 µM (inactive) | > 100 µM (inactive) | > 100 µM (inactive) | > 100 µM (inactive) | > 100 µM (inactive) | > 100 µM (inactive) | > 100 µM (inactive) | > 100 µM (inactive) | > 100 µM (inactive)
COc1ccc(NC(=O)/C(Cc2cc(=O)oc3cc(O)ccc23)=N\NC(C)(C)C)c(OC)c1 | – | > 100 µM (inactive) | > 100 µM (inactive) | – | > 100 µM (inactive) | – | – | > 100 µM (inactive) | –
O=C1c2cccc(NCCNCCO)c2C(=O)c2cccc(NCCNCCO)c21 | 3.18 µM (inactive) | 1.18 µM (inactive) | 0.643 µM (active) | 2.15 µM (inactive) | 0.556 µM (active) | 2.91 µM (inactive) | 0.368 µM (active) | – | 3.13 µM (inactive)
CC1=C(C(=O)Nc2c(C)cccc2C)C(c2ccccc2Cl)C(C(=O)Nc2c(C)cccc2C)=C(C)N1 | > 100 µM (inactive) | > 100 µM (inactive) | > 100 µM (inactive) | – | > 100 µM (inactive) | > 100 µM (inactive) | > 100 µM (inactive) | > 100 µM (inactive) | –
NC1=NN(c2ccccc2)C(=O)C1C(=O)C(=O)Nc1ccccc1 (stereo not given) | > 100 µM (inactive) | > 100 µM (inactive) | > 100 µM (inactive) | > 100 µM (inactive) | > 100 µM (inactive) | > 100 µM (inactive) | > 100 µM (inactive) | > 100 µM (inactive) | –
CCOc1ccccc1NC(=O)C1=C(C)NC(C)=C(C(=O)Nc2ccccc2OCC)C1c1ccc([N+](=O)[O-])cc1 | > 100 µM (inactive) | > 100 µM (inactive) | 70.5 µM (inactive) | > 100 µM (inactive) | – | 71.4 µM (inactive) | 65.9 µM (inactive) | > 100 µM (inactive) | > 100 µM (inactive)
C(=N\CC/N=C/c1cccc2ccccc12)/c1cccc2ccccc12 | > 100 µM (inactive) | > 100 µM (inactive) | > 100 µM (inactive) | > 100 µM (inactive) | > 100 µM (inactive) | > 100 µM (inactive) | > 100 µM (inactive) | > 100 µM (inactive) | –
C[C@H](OCc1ccccc1)C(=O)N1CCS(=O)(=O)N2CCC[C@@H]2C1=O | > 100 µM (inactive) | > 100 µM (inactive) | > 100 µM (inactive) | > 100 µM (inactive) | 0.746 µM (active) | – | > 100 µM (inactive) | > 100 µM (inactive) | > 100 µM (inactive)
CCC(C(=O)O)c1ccc(OCc2ccccc2)cc1 (stereo not given) | > 100 µM (inactive) | > 100 µM (inactive) | > 100 µM (inactive) | – | > 100 µM (inactive) | > 100 µM (inactive) | > 100 µM (inactive) | – | –
O=C(Nc1cccc2c1[nH]c1c(-c3ccccc3)nccc12)c1ccccc1[N+](=O)[O-] | – | 11.2 µM (inactive) | 25.5 µM (inactive) | > 100 µM (inactive) | – | 4.88 µM (inactive) | – | – | 17.9 µM (inactive)
Cc1ccc(NC(=O)C(=O)CC(=O)c2c(C)[n+]([O-])c3ccccc3[n+]2[O-])cc1C | – | 91.8 µM (inactive) | > 100 µM (inactive) | 48.9 µM (inactive) | – | > 100 µM (inactive) | – | 91.2 µM (inactive) | –
Cc1cc2ncn(-c3nc4ccccc4nc3C(C#N)S(C)(=O)=O)c2cc1C (stereo not given) | > 100 µM (inactive) | > 100 µM (inactive) | > 100 µM (inactive) | – | > 100 µM (inactive) | > 100 µM (inactive) | > 100 µM (inactive) | > 100 µM (inactive) | –
CCN(CC)CCCCC1CCN(CC(=O)N2c3cc(Cl)ccc3NC(=O)CC2C)CC1 (stereo not given) | > 100 µM (inactive) | 40.9 µM (inactive) | > 100 µM (inactive) | > 100 µM (inactive) | – | > 100 µM (inactive) | – | > 100 µM (inactive) | –
CCCCNC(=O)C1C(=O)N(CCCC)C(=O)/C1=N\N (stereo not given) | – | > 100 µM (inactive) | > 100 µM (inactive) | > 100 µM (inactive) | > 100 µM (inactive) | > 100 µM (inactive) | > 100 µM (inactive) | > 100 µM (inactive) | > 100 µM (inactive)
COC(=O)C1(O)CC(=O)CCC1c1ccc(OC)cc1 (stereo not given) | > 100 µM (inactive) | > 100 µM (inactive) | – | > 100 µM (inactive) | – | > 100 µM (inactive) | > 100 µM (inactive) | – | > 100 µM (inactive)
COc1ccc2[nH]c(=O)cc(C)c2c1[N+](=O)[O-] | 84.1 µM (inactive) | > 100 µM (inactive) | > 100 µM (inactive) | – | > 100 µM (inactive) | > 100 µM (inactive) | > 100 µM (inactive) | > 100 µM (inactive) | > 100 µM (inactive)
O=C1c2cccc(NCCCNCCO)c2C(=O)c2cccc(NCCCNCCO)c21 | 2.34 µM (inactive) | 2.75 µM (inactive) | – | – | – | 2.31 µM (inactive) | – | – | –
Cc1ccccc1NC(=O)C1C(=O)N(c2ccccc2C)C(=O)/C1=N\NC(N)=O (stereo not given) | > 100 µM (inactive) | > 100 µM (inactive) | > 100 µM (inactive) | 92.3 µM (inactive) | – | > 100 µM (inactive) | > 100 µM (inactive) | > 100 µM (inactive) | –
CCN(CC)CCNC(=O)c1ccc([N+](=O)[O-])cc1OC | > 100 µM (inactive) | > 100 µM (inactive) | > 100 µM (inactive) | – | – | > 100 µM (inactive) | > 100 µM (inactive) | > 100 µM (inactive) | –
O[C@H]1[C@H](O)[C@@H](O)CN2CC[C@H](O)[C@H]12 [CASTANOSPERMINE] | > 100 µM (inactive) | > 100 µM (inactive) | – | > 100 µM (inactive) | > 100 µM (inactive) | > 100 µM (inactive) | > 100 µM (inactive) | 32.8 µM (inactive) | –
